Values after ≈ are worked out from the molar mass of the structure shown.
Columns and labels:
[1] = Human Plasma Protein Binding (Test B); type: in vitro ADME; conditions: fraction unbound (fu)
Method in brief: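 Human plasma protein binding run per the published Wernevik et al. (2020) integrated DMPK panel protocol. Values are fraction unbound (fu, % free); repeat runs averaged arithmetically.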

[2] = Human Liver Microsomal Stability (Test C); type: in vitro ADME; conditions: human, liver microsomes
Method in brief: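 Human liver microsome incubation per the Wernevik et al. integrated DMPK panel protocol. Intrinsic clearance reported as CLint in μl/min/mg protein, averaged arithmetically over repeat runs.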

[3] = Human Hepatocyte Stability (Test D); type: in vitro ADME; conditions: human, cryopreserved pooled human hepatocytes (LiverPool 10-Donor), geometric mean if run multiple times
Protocol: Human Hepatocyte Stability (Test D)
The metabolic stability of compounds in human hepatocytes was assessed using the following protocol:
1. Prepare 10 mM stock solutions of compound and control compounds in appropriate solvent (DMSO). Place incubation medium (L-15 Medium) in a 37° C. water bath, and allow warming for at least 15 minutes prior to use.
2. Add 80 μL of acetonitrile to each well of the 96-well deep well plate (“Quenching plate”).
3. In a new 96-well plate, dilute the 10 mM test compounds and the control compounds to 100 μM by combining 198 μL of acetonitrile and 2 μL of 10 mM stock solution.
4. Remove a vial of cryopreserved (less than −150° C.) human hepatocytes (LiverPool™ 10-Donor Human hepatocytes obtained from Bioreclamation IVT (Product No. S01205)) from storage, ensuring that vials remain at cryogenic temperatures until thawing process ensues. As quickly as possible, thaw the cells by placing the vial in a 37° C. water bath and gently shaking the vials. Vials should remain in water bath until all ice crystals have dissolved and are no longer visible. After thawing is complete, spray vial with 70% ethanol, transfer the vial to a bio-safety cabinet.
5. Open the vial and pour the contents into the 50 mL conical tube containing thawing medium. Place the 50 mL conical tube into a centrifuge and spin at 100 g for 10 minutes (room temperature).
6. Using Cellometer® Vision, count cells and determine the viable cell density. Cells with poor viability (<80% viability) are not acceptable for use.
7. Transfer 247.5 μL of hepatocytes into each well of a 96-well cell incubation plate. Place the plate on Eppendorf Thermomixer Comfort plate shaker to allow the hepatocytes to warm for 10 minutes.
8. Add 2.5 μL of 100 μM test compound or control compounds into an incubation well containing cells to initiate the reaction.
9. Incubate the plate at 37° C. and 900 rpm on an Eppendorf Thermomixer Comfort plate shaker.
10. Centrifuge the quenching plates for 20 minutes at 4,000 rpm. Transfer 30 μL of supernatant of each compound into a 96-well analysis plate. 4 compounds are pooled together into one cassette. Then dilute the pooled sample by adding of 180 μl of pure water. All incubations are performed in singlicate.
All calculations were carried out using Microsoft Excel. Peak areas were determined from extracted ion chromatograms. In vitro intrinsic clearance (in vitro Clint, in μL/min/10^6 cells) of parent compound was determined by regression analysis of the Ln percent parent disappearance vs. time curve. The in vitro intrinsic clearance (in vitro Clint, in μL/min/10^6 cells) reported in Table 36, and was determined from the slope value using the following equation: in vitro Clint=kV/N
V=incubation volume (0.25 mL);
N=number of hepatocytes per well (0.25×10^6 cells)
Where the assay was run multiple times for the same compound, the geometric mean is reported.

[4] = Rat Hepatocyte Stability (Test E); type: in vitro ADME; conditions: rat, hepatocytes, geometric mean if run multiple times
Method in brief: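 Run per the published AstraZeneca-type rat hepatocyte stability protocol (Wernevik et al. panel). Values are mean intrinsic clearance, Clint in μl/min/10^6 cells; geometric mean used for repeated runs.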

[5] = Solubility (Test F); type: physicochemical; conditions: arithmetic mean if run multiple times
Protocol: The assay was conducted according to the Solubility Assay described in pages 164-167 of Wernevik, J. et al., “A Fully Integrated Assay Panel for Early Drug Metabolism and Pharmacokinetics Profiling”, Assay and Drug Development Technologies, 2020, 18(4), 157-179. Data are reported in Table 36 as solubility ([…]. Where the assay was run multiple times for the same compound, the arithmetic mean is reported.

[6] = target: T1, human RXFP1 (Homo sapiens, UniProt Q9HBX9); test: RXFP1 Hu cAMP (Test A); type: cell-based; parameters: expressed in transfected cells; host or cells: Jump-In T-REx CHO-K1 cells (ThermoFisher), induced with 10 ng/ml doxycycline for 24 h; conditions: RXFP1 Hu cAMP
T1 sequence (Q9HBX9 1-757): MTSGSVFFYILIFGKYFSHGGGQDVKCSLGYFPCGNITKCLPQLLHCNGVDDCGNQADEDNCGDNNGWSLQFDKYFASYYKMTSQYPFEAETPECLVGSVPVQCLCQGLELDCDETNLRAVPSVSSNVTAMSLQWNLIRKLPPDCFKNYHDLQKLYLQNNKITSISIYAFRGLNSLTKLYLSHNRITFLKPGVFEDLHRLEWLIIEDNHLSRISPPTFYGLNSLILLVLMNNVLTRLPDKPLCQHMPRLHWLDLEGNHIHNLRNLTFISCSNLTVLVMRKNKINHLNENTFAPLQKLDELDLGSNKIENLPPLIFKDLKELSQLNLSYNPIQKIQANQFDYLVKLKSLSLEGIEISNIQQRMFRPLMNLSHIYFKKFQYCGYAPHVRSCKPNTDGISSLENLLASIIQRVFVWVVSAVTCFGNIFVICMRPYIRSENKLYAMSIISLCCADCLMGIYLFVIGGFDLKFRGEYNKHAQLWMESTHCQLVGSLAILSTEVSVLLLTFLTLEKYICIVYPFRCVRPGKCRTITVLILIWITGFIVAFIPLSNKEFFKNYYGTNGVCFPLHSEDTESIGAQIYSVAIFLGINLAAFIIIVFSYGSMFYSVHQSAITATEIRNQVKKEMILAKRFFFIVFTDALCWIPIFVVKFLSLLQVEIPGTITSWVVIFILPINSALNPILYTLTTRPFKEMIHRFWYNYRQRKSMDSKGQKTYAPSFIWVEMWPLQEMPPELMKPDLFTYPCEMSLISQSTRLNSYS
Method in brief: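 Cells: CHO-K1 stably carrying human RXFP1, expressed after 24 h 10 ng/ml doxycycline; 0.5 mM IBMX final, HTRF detection after 2 h at room temperature.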

SMILES	Test B Human Plasma Protein Binding (% free) [1] [% free]	microsomal CLint [2] [µL/min/mg]	hepatocyte CLint at 1 µM [3] [µL/min/1e6 cells]	hepatocyte CLint [4] [µL/min/1e6 cells]	solubility [5] [µM]	Test A Sinf [6] [%]	EC50 ([6]; read-out: Test A EC50) [nM]
COc1cc(C#N)c(O[C@H]2CC[C@@](C)(C(=O)O)CC2)cc1C(=O)N[C@@H]1[C@@H]2CC[C@@H](C2)[C@@H]1C(=O)NCC1(C)CCC1 [Example 388]	3.4	34	49	55	680 (≈ 375 µg/mL)	–	–
COc1cc(C#N)c(O[C@H]2CC[C@@](C)(C(=O)O)CC2)cc1C(=O)N[C@@H]1[C@@H]2CC[C@@H](C2)[C@@H]1C(=O)NCC(C)(C)C [Example 389]	6	5.8	8	11	910 (≈ 491 µg/mL)	–	–
COc1c(Cl)cc(O[C@H]2CC[C@@](C)(C(=O)O)CC2)cc1C(=O)N[C@@H]1[C@H]2CC[C@H](C2)[C@@H]1C(=O)NCC1(C)CCC1 [Example 403]	1.5	81	13	25	660 (≈ 370 µg/mL)	–	–
CCc1cc(OC)c(C(=O)N[C@@H]2[C@H]3CC[C@H](C3)[C@@H]2C(=O)NCC2(C)CCC2)cc1O[C@H]1CC[C@@](C)(C(=O)O)CC1 [Example 376]	2.5	44	3.9	28	300 (≈ 166 µg/mL)	–	–
COc1cc(C#N)c(O[C@H]2CC[C@@](C)(C(=O)O)CC2)cc1C(=O)N[C@@H]1[C@H]2CC[C@H](C2)[C@@H]1C(=O)NC12CC(F)(C1)C2 [Example 622]	17	< 5.1	1.7	11	> 860	–	–
COc1cc(C#N)c(O[C@H]2CC[C@@](C)(C(=O)O)CC2)cc1C(=O)N[C@@H]1[C@H]2CC[C@H](C2)[C@@H]1C(=O)NCC1(C)CCC1 [Example 592, (1S,4s)-4-(2-cyano-4-methoxy-5-(((1S,2R,3S,4R)-3-(((1-methylcyclobutyl)methyl)carbamoyl)bicyclo[2.2.1]heptan-2-yl)carbamoyl)phenoxy)-1-methylcyclohexane-1-carboxylic acid]	6.3	19	5.6	18	> 890	–	–
COc1cc(C(F)F)c(O[C@H]2CC[C@@](C)(C(=O)O)CC2)cc1C(=O)N[C@@H]1[C@H]2CC[C@H](C2)[C@@H]1C(=O)NCC1(C)CCC1 [Example 373]	3.9	23	5.1	16	1000 (≈ 577 µg/mL)	–	–
COc1cc(F)c(O[C@H]2CC[C@@](C)(C(=O)O)CC2)cc1C(=O)N[C@@H]1[C@H]2CC[C@H](C2)[C@@H]1C(=O)NCC(C)C [Example 34, (1S,4s)-4-(2-Fluoro-5-(((1S,2R,3S,4R)-3-(isobutylcarbamoyl)bicyclo[2.2.1]heptan-2-yl)carbamoyl)-4-methoxyphenoxy)-1-methylcyclohexane-1-carboxylic acid]	4.8	5.7	< 1	19	880 (≈ 456 µg/mL)	–	–
CC1(CNC(=O)[C@H]2[C@@H]3CC[C@@H](C3)[C@H]2NC(=O)c2cc(O[C@H]3CC[C@@](C)(C(=O)O)CC3)c(F)cc2F)CCC1 [Example 393, (1S,4s)-4-(2,4-Difluoro-5-(((1S,2R,3S,4R)-3-(((1-methylcyclobutyl)methyl)carbamoyl)bicyclo[2.2.1]heptan-2-yl)carbamoyl)phenoxy)-1-methylcyclohexane-1-carboxylic acid]	1.4	37	6.7	12	53 (≈ 28.2 µg/mL)	–	–
CC1(CNC(=O)[C@H]2[C@@H]3CC[C@@H](C3)[C@H]2NC(=O)c2cc(O[C@H]3CC[C@@](C)(C(=O)O)CC3)c(F)cc2OC(F)F)CCC1 [Example 207, (1S,4s)-4-(4-(Difluoromethoxy)-2-fluoro-5-(((1S,2R,3S,4R)-3-(((1-methylcyclobutyl)methyl)carbamoyl)bicyclo[2.2.1]heptan-2-yl)carbamoyl)phenoxy)-1-methylcyclohexane-1-carboxylic acid]	3.5	34	26	10	560 (≈ 325 µg/mL)	–	–
COc1cc(Cl)c(O[C@H]2CC[C@@](C)(C(=O)O)CC2)cc1C(=O)N[C@@H]1[C@@H]2CC[C@@H](C2)[C@@H]1C(=O)NCC1(C)CCC1 [Example 410]	0.48	20	49	21	280 (≈ 157 µg/mL)	–	–
COc1cc(F)c(O[C@H]2CC[C@@](CO)(C(=O)O)CC2)cc1C(=O)N[C@@H]1[C@H]2CC[C@H](C2)[C@@H]1C(=O)NCC1(C)CCC1 [Example 364]	11	< 5.1	6.2	19	> 1000	–	–
COc1cc(F)c(-c2ccc(CCC(N)(CO)CO)c(F)c2)cc1C(=O)N[C@@H]1[C@H]2CC[C@H](C2)[C@@H]1C(=O)Nc1cccc(S(=O)(=O)C(F)(F)F)c1 [Example 266, (1R,2S,3R,4S)-3-(4′-(3-Amino-4-hydroxy-3-(hydroxymethyl)butyl)-3′,6-difluoro-4-methoxy-[1,1′-biphenyl]-3-carboxamido)-N-(3-((trifluoromethyl)sulfonyl)phenyl)bicyclo[2.2.1]heptane-2-carboxamide]	<0.34	68	9.4	8.8	–	103	110
